The test system of one series is eck receptor. Description: Chemical crosslinking of 125I-EBP to CHO 19.32 cells. It counts as binding, human. To be noted: untransfected cells (CHOd-). The method, then: (§1) CHO-cell derived EBP was radiolabelled with ^125 I as described below for use in crosslinking and binding studies. Five or 10 μg of EBP in 0.1M sodium phosphate (NAPO4, pH 8.0) was added to 5 mCi of dried ^125 I-Bolton-Hunter reagent (NEN, Boston, Mass.) in a final volume of 50 μl or 100 μl, and the tube was incubated at 4° C. for 1 h. The reaction was terminated by addition of 0.3 ml of 0.2M glycine in 0.1M NaPO4, followed by incubation at 4° C. for 5 min. Labeled protein was separated from unincorporated reagent by gel filtration chromatography on a 10 ml PD10 column containing Sephadex G-25M (Pharmacia) equilibrated with 0.1M NaPO4 --0.25% gelatin. Specific activity of the ^125 I-EBP ranged from 4 to 19 cpm/pg.
(§2) Crosslinking of EBP to either LIM 2405 (a cell line naturally expressing the eck receptor) or CHO 19.32 (Chinese hamster ovary cells transfected with a clone of the full length eck receptor) was carried out as follows. CHO cells were grown in suspension to a density of approximately 5×10^5 cells/ml in media. LIM2405 cells were grown in RPMI 1640 media containing 5% FCS, 1 μg/ml insulin, 1 μg/ml hydrocortisone, 10 μM thioglycerol and 2 mM L-glutamine to approximately 90% confluency in T-175 flasks and removed by scraping for use in the crosslinking studies. Cells were spun down and resuspended in PBS to give a single cell suspension. For each crosslinking reaction, 2×10^6 cells were mixed with approximately 20 ng of ^125 I-EBP in a total volume of 1 ml. This mixture was incubated at 4° C. for 1 h to allow binding of EBP to cell surface receptors before the addition of 20 μl of 10 mM disuccinimidyl suberate (DSS) as a crosslinking agent. Cells were then washed three times in binding buffer, collected by centrifugation, and the amount of radioactivity incorporated into the cell pellets was counted to assess the degree of crosslinking. The cells were then lysed by treatment with 100 ul PBS, 1 mM EDTA, 0.5% NP-40, 1 mM phenylmethylsulfonyl fluoride (PMSF, Sigma, St. Louis, Mo.) for 10 min at 4° C. […]

Series [1] deals with eck receptor on CHO 19.32 cells. Described as above. It counts as binding, human. The method, then: as §1, §2
Series [2] concerns immobilized soluble extracellular domain of eck. The series is described as follows: Stability of eck binding activity of formulated EBP (BIAcore). Particulars: diluted into PBS to 100 μg/ml, 2 hours at 3° C., no detergent. It counts as physicochemical, human. The method, then:
FIG. 7. Binding of CHO-derived EBP in various detergent formulations to immobilized eck receptor as measured by BIAcore. Purified EBP was diluted to 100 μg/ml in PBS in the presence or absence of detergent and incubated for 2 hrs. at 3° C. Protein samples were diluted to the concentrations indicated in the figure and tested for eck receptor binding.
Measuring the ability of EBP to bind to the immobilized soluble extracellular domain of eck using BIAcore, it was determined that dilute solutions of purified EBP rapidly lost the ability to bind to the eck receptor unless formulated with a protective agent such as a detergent. Recombinant CHO EBP diluted into PBS to 100 μg/ml and incubated for 2 hours at […] lost approximately 50% of its eck binding activity. […] (see FIG. 7).

In the case of “CHO-EBP: recombinant EBP purified from supernatants of CHO cells transfected with the EBP gene; mainly EBP^1-150 and EBP^1-159”, in the series on eck receptor, the “crosslinking to untransfected CHO cells” value was “but not to the untransfected cells”. Moreover, in series [1] (50-fold molar excess), the “competition for binding and crosslinking of 125I-rEBP” value is “able to compete”. Also, the “crosslinking to CHO 19.32 cells” value in series [1] (CHO cells transfected with eck, DSS crosslinker) is “could be crosslinked”. Besides, in series [2], the “loss of eck binding activity” value is reported as “approximately 50%”.
